Results: article PMC3919815, “Anti-Tumor Effects of Novel 5-O-Acyl Plumbagins Based on the Inhibition of Mammalian DNA Replicative Polymerase Activity” (PLoS ONE, 2014)
Like-named read-outs stand apart in the source and are kept apart here.

Tests used:
Calf primase of pol α = Calf primase of pol α (Bos taurus, UniProt A0A3Q1MF00); assay: Other DNA metabolic enzyme assay; assay type: biochemical
Procedure: (§1) The activities of calf primase of pol α, T7 RNA polymerase, mouse inosine-5′-[…] (IMP) dehydrogenase (type II), T4 polynucleotide kinase, and bovine deoxyribonuclease I were measured in standard assays according to the manufacturer's specifications, as described by Tamiya-Koizumi et al., Nakayama and Saneyoshi, Mizushina et al., Soltis et al., and Lu and Sakaguchi, respectively.

[1] = molecular target: Mouse IMP dehydrogenase (type II) (Mus musculus, UniProt P24547); assay: Other DNA metabolic enzyme assay; assay type: biochemical
Sequence of Mouse IMP dehydrogenase (type II) (P24547 whole entry): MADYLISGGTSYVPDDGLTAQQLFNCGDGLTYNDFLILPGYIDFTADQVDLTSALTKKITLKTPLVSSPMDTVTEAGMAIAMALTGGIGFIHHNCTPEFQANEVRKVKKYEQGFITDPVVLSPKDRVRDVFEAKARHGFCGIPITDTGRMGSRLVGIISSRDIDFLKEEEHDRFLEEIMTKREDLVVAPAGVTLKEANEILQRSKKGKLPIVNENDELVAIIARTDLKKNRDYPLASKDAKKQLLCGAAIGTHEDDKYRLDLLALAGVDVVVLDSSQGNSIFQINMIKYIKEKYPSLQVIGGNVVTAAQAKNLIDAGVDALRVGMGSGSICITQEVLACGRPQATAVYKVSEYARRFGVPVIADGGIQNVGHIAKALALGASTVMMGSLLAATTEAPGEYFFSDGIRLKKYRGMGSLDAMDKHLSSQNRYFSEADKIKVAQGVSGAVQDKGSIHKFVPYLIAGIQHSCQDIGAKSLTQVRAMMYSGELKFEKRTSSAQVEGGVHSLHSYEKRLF
Procedure: as §1

[2] = Stability under basic conditions (Triton B, UV-vis); assay type: physicochemical; conditions: 1 equivalent Triton B in 1,4-dioxane and MeOH, 1.1×10^−3 M, 25°C
Procedure: A 2.2×10^−2 M solution of Triton B in MeOH was added to a 2.2×10^−2 M solution of each sample in 1,4-dioxane. Then, the mixture was diluted with 1,4-dioxane to a concentration of 1.1×10^−3 M. Then, the stability of each compound was monitored by UV-vis spectroscopy. UV-vis spectra were measured at 25°C on a UV-vis spectrophotometer (JASCO V-650, Tokyo, Japan). For comparison, UV-vis spectra of 1.1×10^−3 M solution of C18:1-acyl plumbagin (2f), and C18:1-acyl juglone (5f) in 1,4-dioxane and MeOH (19/1, v/v) were measured.

mammalian pols = assay: DNA polymerase activity inhibition, summary over the panel; assay type: biochemical
Source text: (§2) Pol α was purified from calf thymus by immunoaffinity column chromatography as described by Tamai et al.. Recombinant rat pol β was purified from Escherichia coli JMpβ5 as described by Date et al.. The human pol γ catalytic gene was cloned into pFastBac. Histidine-tagged enzyme was expressed using the BACTO-BAC HT Baculovirus Expression System according to the manufacturer's instructions (Life Technologies, Frederick, MD, USA) and purified using ProBound resin (Invitrogen Japan, Tokyo Japan). Human pols δ and ε were purified by nuclear fractionation of human peripheral blood cancer cells (Molt-4) using the second subunit of pol δ and ε-conjugated affinity column chromatography, respectively. A truncated form of human pol η (residues 1–511) tagged with His6 at its C-terminal was expressed in E. coli cells and purified as described by Kusumoto et al.. A recombinant mouse pol ι tagged with His6 at its C-terminal was expressed and purified by Ni–NTA column chromatography. A truncated form of pol κ (residues 1–560) with 6× His-tags attached at the C-terminus was overexpressed in E. coli and purified as described by Ohashi et al.. Recombinant human His-pol λ was overexpressed and purified according to a method described by Shimazaki et al.. Recombinant human His-pol μ was overexpressed in E. coli BL21 and purified using Glutathione Sepharose 4B (GE Healthcare Bio-Science Corp., Piscataway, NJ, USA) column chromatography according to the method for pol λ preparation by Shimazaki et al.. Pol α from a higher plant, cauliflower, was purified from the inflorescence structure according to the methods outlined by Sakaguchi et al.. Recombinant rice (Oryza sativa L. cv. Nipponbare) pol λ tagged with His6 at the C-terminus was expressed in E. coli and purified as described by Uchiyama et al.. Calf TdT, Taq pol, T4 pol, T7 RNA polymerase, and T4 polynucleotide kinase were purchased from Takara Bio Inc. (Kyoto, Japan). The Klenow fragment of pol I from E. coli was purchased from Worthington Biochemical Corp. (Freehold, NJ, USA). Bovine pancreas deoxyribonuclease I was obtained from Stratagene Cloning Systems (La Jolla, CA, USA).
The reaction mixtures for calf pol α, rat pol β, plant pol α, and prokaryotic pols have been described previously, [35]; those for pol γ as well as pols δ and ε were previously described by Umeda et al. and Ogawa et al., respectively. Those for pols η, ι, and κ were the same as for pol α, and those for pols λ and μ were the same as for pol β. For the pol reactions, poly(dA)/oligo(dT)18 (A/T, 2/1) and dTTP were used as the DNA template-primer substrate and nucleotide (dNTP; 2′-deoxynucleoside-5′-triphosphate) substrate, respectively. For the TdT reactions, oligo(dT)18 (3′-OH) and dTTP were used as the DNA primer substrate and nucleotide substrate, respectively.
The chemically synthesized 5-O-acyl plumbagins (2a–j) were dissolved in distilled dimethyl sulfoxide (DMSO) to various concentrations and sonicated for 30 s. Subsequently, 4 µL aliquots were mixed with 16 µL of each enzyme (0.05 units) in 50 mM Tris-HCl at pH 7.5, containing 1 mM dithiothreitol, 50% glycerol (by vol), and 0.1 mM ethylenediaminetetraacetic acid and held at 0°C for 10 min. These inhibitor-enzyme mixtures in 8 µL volumes were next added to 16 µL of enzyme standard reaction mixture and incubated at 37°C for 60 min, except for Taq pol, which was incubated at 74°C for 60 min. Activity without inhibitor was considered 100%, and the relative activity was determined for each inhibitor concentration. One unit of pol activity was defined as the amount of each enzyme that catalyzed the incorporation of 1 nmol dTTP into synthetic DNA template primers in 60 min, at 37°C, and under standard reaction conditions, [35].

T4 polynucleotide kinase = molecular target: T1, T4 polynucleotide kinase (Enterobacteria phage T4, UniProt P06855); assay: Other DNA metabolic enzyme assay; assay type: biochemical
T1 construct: purchased Takara Bio Inc. (Kyoto, Japan)
T1 sequence (P06855 whole entry): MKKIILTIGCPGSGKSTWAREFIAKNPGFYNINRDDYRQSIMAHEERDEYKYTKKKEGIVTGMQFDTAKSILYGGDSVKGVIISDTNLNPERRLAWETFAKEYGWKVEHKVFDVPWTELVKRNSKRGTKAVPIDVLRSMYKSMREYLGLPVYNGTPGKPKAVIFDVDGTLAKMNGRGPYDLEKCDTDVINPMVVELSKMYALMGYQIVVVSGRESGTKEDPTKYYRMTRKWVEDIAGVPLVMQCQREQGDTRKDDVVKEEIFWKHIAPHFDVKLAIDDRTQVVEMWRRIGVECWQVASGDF
Source text: as §2, §1

[3] = molecular target: T2, Bovine deoxyribonuclease I (Bos taurus, UniProt P00639); assay: Other DNA metabolic enzyme assay; assay type: biochemical
T2 construct: Bovine pancreas deoxyribonuclease I was obtained from Stratagene Cloning Systems; purchased Stratagene Cloning Systems (La Jolla, CA, USA); host or cells: bovine pancreas
T2 sequence (P00639 23-282): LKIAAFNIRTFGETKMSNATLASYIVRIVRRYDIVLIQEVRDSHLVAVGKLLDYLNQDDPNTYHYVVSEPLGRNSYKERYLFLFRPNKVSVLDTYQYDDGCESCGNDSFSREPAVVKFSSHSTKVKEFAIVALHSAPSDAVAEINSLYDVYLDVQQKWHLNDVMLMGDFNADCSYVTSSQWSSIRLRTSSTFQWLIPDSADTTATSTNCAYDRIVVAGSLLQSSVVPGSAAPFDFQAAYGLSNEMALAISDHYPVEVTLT
Source text: as §2, §1

T7 RNA polymerase = molecular target: T3, T7 RNA polymerase (Escherichia phage T7, UniProt P00573); assay: Other DNA metabolic enzyme assay; assay type: biochemical
T3 construct: purchased Takara Bio Inc. (Kyoto, Japan)
T3 sequence (P00573 whole entry): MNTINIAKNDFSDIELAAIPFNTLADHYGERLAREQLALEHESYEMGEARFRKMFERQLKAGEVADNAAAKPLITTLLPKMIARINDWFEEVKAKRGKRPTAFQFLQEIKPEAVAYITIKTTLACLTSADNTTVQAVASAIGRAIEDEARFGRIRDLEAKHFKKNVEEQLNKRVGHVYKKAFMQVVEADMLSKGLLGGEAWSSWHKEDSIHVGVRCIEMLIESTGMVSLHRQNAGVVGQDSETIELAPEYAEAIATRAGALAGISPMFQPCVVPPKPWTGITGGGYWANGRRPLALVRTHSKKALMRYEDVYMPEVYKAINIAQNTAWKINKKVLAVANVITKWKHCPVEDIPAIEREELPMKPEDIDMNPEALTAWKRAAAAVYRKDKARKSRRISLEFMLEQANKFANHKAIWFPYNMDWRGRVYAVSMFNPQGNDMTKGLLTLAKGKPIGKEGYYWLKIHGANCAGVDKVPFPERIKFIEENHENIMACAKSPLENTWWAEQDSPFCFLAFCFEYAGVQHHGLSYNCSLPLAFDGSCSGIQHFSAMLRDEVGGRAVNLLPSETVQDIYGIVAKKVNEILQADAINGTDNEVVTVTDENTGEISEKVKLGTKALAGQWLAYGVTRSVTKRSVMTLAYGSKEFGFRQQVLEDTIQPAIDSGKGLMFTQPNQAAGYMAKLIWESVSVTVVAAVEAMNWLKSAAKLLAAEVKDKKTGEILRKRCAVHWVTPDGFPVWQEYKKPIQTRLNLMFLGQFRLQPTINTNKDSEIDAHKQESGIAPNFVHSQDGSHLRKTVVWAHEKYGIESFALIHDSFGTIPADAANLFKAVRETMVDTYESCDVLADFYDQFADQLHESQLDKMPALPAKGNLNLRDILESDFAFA
Source text: as §2, §1

Sequence of Calf primase of pol α (A0AAA9THK8 entry or part of it): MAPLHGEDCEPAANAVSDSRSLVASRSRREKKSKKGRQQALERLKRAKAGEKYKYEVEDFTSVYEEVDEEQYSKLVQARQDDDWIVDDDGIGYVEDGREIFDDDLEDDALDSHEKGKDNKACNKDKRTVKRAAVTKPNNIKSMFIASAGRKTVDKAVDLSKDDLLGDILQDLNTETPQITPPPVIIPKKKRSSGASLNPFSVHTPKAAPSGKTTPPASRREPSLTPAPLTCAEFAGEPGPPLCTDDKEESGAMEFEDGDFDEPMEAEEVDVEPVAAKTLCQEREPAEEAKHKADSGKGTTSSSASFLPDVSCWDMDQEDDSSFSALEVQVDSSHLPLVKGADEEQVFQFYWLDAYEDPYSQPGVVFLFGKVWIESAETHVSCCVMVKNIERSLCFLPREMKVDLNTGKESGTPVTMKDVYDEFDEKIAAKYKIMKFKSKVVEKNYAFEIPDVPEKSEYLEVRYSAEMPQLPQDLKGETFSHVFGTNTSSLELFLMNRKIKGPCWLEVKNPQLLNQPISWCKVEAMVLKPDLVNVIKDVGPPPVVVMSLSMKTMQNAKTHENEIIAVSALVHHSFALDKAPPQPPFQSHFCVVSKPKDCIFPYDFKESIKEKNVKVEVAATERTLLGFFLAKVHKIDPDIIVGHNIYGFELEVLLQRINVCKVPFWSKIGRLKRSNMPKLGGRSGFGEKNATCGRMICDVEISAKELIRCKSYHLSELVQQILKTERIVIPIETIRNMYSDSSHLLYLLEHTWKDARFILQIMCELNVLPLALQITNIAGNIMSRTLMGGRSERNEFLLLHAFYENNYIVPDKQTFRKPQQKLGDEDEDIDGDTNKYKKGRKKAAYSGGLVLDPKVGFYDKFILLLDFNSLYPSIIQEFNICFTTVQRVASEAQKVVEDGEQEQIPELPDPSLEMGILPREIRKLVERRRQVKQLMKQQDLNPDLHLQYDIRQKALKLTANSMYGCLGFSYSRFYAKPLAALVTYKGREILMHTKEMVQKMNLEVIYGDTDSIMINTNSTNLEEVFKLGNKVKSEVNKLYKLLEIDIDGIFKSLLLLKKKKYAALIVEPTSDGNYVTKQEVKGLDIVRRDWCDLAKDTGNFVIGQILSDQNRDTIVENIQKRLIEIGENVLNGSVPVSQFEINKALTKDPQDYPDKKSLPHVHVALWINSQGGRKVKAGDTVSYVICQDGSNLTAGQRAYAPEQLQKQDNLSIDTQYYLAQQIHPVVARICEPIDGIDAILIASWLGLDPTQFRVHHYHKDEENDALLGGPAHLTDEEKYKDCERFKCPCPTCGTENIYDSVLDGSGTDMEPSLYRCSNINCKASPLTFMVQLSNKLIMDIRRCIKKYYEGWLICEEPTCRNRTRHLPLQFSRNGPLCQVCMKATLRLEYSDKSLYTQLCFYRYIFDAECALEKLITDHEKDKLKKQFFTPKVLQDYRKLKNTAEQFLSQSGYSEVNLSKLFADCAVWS
Sequence of Calf primase of pol α (A0JNF4 entry or part of it, further chain): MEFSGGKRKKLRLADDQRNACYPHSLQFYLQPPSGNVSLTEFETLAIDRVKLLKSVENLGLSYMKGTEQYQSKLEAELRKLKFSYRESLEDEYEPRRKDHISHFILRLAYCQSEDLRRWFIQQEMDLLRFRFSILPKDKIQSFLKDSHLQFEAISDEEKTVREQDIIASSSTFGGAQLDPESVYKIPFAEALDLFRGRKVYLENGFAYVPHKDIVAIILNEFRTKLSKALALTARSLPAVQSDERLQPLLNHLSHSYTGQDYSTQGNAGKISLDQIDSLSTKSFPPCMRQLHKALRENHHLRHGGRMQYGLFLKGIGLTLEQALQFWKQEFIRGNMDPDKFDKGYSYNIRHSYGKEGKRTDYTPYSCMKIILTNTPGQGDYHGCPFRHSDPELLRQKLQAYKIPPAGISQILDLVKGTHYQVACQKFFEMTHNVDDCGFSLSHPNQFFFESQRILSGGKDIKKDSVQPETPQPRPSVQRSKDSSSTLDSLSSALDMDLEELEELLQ
Sequence of Calf primase of pol α (A0A3Q1MF00 entry or part of it): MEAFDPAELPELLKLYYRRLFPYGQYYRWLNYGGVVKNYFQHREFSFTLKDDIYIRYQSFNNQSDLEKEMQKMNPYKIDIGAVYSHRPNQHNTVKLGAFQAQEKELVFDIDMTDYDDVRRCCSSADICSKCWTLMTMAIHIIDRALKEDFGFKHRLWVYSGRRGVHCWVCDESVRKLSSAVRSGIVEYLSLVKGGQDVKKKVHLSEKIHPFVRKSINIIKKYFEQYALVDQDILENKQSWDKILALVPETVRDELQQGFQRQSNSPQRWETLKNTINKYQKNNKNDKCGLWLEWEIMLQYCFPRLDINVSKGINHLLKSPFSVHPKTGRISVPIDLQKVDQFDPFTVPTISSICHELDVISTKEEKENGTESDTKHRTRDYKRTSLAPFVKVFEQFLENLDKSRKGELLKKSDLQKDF
Sequence of Calf primase of pol α (Q58D13 whole entry, further chain): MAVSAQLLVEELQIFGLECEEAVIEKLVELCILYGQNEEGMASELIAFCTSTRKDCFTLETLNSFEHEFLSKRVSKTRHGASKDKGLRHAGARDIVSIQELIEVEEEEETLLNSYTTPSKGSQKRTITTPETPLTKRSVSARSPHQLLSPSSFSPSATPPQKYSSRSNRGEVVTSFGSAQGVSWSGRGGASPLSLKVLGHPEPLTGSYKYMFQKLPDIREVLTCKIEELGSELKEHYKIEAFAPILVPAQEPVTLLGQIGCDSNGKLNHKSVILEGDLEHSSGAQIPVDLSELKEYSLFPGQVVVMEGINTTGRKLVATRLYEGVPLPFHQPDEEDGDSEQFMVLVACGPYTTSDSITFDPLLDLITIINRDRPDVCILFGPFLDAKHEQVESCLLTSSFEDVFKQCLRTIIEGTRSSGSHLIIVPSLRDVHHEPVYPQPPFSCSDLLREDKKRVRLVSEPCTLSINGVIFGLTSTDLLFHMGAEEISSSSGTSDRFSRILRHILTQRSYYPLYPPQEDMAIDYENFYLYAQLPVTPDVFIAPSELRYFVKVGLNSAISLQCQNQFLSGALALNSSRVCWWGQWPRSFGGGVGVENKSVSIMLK

For `CCCCCCCC/C=C\CCCCCCCC(=O)Oc1cccc2c1C(=O)C=C(C)C2=O` [2f, 5-O-oleoyl-2-methyl-1,4-naphthoquinone], the “effect on enzyme activity (in words)” value (Calf primase of pol α) was “did not inhibit”, the IC50 (Calf primase of pol α; 0.05 units enzyme) was > 100 µM and the “effect on enzyme activity (in words)” value [1] was “did not inhibit”. For the same molecule, the IC50 ([1]; 0.05 units enzyme) was > 100 µM, the “stability under basic conditions (UV spectra)” value [2] was “Almost no changes in UV spectra” and the “inhibitory effect on A and B families of pols, fold stronger than on X and Y families” value (mammalian pols) was 1.5- to 2 fold. The IC50 (mammalian pols; B family of pols, read-out: 50% inhibition dose) was 4.8 to 5.3 µM, the IC50 (mammalian pols; X family of pols, read-out: 50% inhibition dose) was 9.2 to 10.6 µM and the IC50 (mammalian pols; Y family of pols, read-out: 50% inhibition dose) was 7.6 to 8.2 µM. The IC50 (mammalian pols; all of the mammalian pols (11 species), read-out: IC50 values) was 4.5 to 10.6 µM, the “influence of excess poly(rC) and BSA on pol inhibition” value (mammalian pols; data not shown) was “little or no influence” and the “pol inhibitory activity, fold more potent than aphidicolin” value (mammalian pols; pols α, δ and ε, versus aphidicolin IC50 of ref 45) was > 2 fold. For the same molecule, the “effect on enzyme activity (in words)” value (T4 polynucleotide kinase) was “did not inhibit”, the IC50 (T4 polynucleotide kinase; 0.05 units enzyme) was > 100 µM and the “effect on enzyme activity (in words)” value [3] was “did not inhibit”. The IC50 ([3]; 0.05 units enzyme) was > 100 µM, the “effect on enzyme activity (in words)” value (T7 RNA polymerase) was “did not inhibit” and the IC50 (T7 RNA polymerase; 0.05 units enzyme) was > 100 µM.
